Values of other authors, collected in patent US20060189608A1, “Methods for treating ocular angiogenesis, retinal edema, retinal ischemia, and diabetic retinopathy using selective RTK inhibitors” (Alcon, Inc., priority 2005, published 2006).

Legend:
diabetic macular edema = settings: human patients with diabetic macular edema, cited from earlier work
[1] = system: preretinal and choroidal NV; settings: oral administration, mice; cited from earlier work

## CO[C@@H]1[C@H](N(C)C(=O)c2ccccc2)C[C@H]2O[C@]1(C)n1c3ccccc3c3c4c(c5c6ccccc6n2c5c31)C(=O)NC4 [PKC-412]
Diabetic macular edema; pilot results
  macular edema and visual acuity: a reduction in macular edema and an improvement in visual acuity
Diabetic macular edema
  liver toxicity: concerns related to liver toxicity halted the clinical trials
[1]
  effect on preretinal and choroidal NV: inhibited both preretinal and choroidal NV in mice
